Results taken from publication PMC5430874 (Scientific Reports, 2017).
Where a chain is given by its changes, count along the chain named. Where two headings read alike, the source gives them in different places. Values belong to the compound of their own block, whether it stands above or below them.

What was measured:
[1] = target: T1, GPR139 E108A^3×32 (Homo sapiens, UniProt Q6DWJ6, E108A); experiment: Fluo-4 Ca2+-assay, GPR139 mutant E108A; format: cell-based; details: for EC50: E108A mutant
T1 construct: mGluR5 signal peptide (N); expressed in transfected cells; host or cells: HEK293
T1 sequence (Q6DWJ6 2-353 E108A limits assumed): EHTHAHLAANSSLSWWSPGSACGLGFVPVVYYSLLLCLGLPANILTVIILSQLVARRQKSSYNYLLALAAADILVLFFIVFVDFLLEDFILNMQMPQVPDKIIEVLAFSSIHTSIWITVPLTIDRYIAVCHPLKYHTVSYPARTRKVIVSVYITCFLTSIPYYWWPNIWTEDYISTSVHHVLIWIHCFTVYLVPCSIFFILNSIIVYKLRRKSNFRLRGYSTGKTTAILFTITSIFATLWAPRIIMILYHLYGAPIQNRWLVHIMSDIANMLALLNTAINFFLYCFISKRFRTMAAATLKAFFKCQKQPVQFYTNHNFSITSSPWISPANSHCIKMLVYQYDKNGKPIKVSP
Excerpt: (§1) To study the influence of specific amino acids in the predicted binding pocket on receptor function, the desired mutations were introduced into an N-terminally c-myc-tagged wild type human GPR139 (NM_001002911.3) in the pEGFP-N1 vector (BD Biosciences)[32], [33]. As previously described, these plasmids carry the signal peptide of mGluR5 to promote cell surface expression followed by a c-myc epitope to enable detection of total and surface expression by ELISA, followed by an engineered MluI and NotI site for easy insertion of the receptor of interest. Furthermore, the start-codon in the GPR139 sequence was deleted to ensure c-myc-tagging. Mutagenesis was designed in Serial Cloner 2.6 (© Franck Perez [SerialBasics]) and carried out by GenScript (USA). All mutated residues are illustrated in Supplementary Fig. 1b. An untagged GPR139(WT) in pEGFP-N1 was also generated to ensure that the c-myc-tag had no influence on GPR139(WT) function.
(§2) All GPR139 mutants were transfected into HEK293 cells. The HEK293 cells were grown in Dulbecco’s modified Eagle’s medium (DMEM) (Gibco, 41965) supplemented with 10% dialyzed fetal bovine serum (Gibco, 26400, United States origin), 100 units/mL penicillin and 100 μg/mL streptomycin (Gibco, 15140). HEK293 cells were reverse transfected using Lipofectamine2000 (Invitrogen). More specifically two mixtures were made: 1) 10 ng DNA/well + 25 μL Opti-MEM/well and 2) […] Lipofectamine2000/well + 25 μL Opti-MEM/well. The two mixtures were mixed and 50 μL/well was added directly in black 96-well plates with flat clear bottoms for the Fluo-4 Ca^2+-assay (Corning, Falcon, 353219) or in white Opaque 96-well Microplate (PerkinElmer Life, 6005680) for ELISA. 100 μL containing 20,000 cells were added to each well and incubated 48 hours before assays. All plates were coated with poly-D-lysine.
(§3) Compound 1a (1a) was kindly provided by H. Lundbeck A/S, Denmark. […] Both compounds were dissolved to 20 mM in DMSO (Sigma, D2650) and subsequently diluted in a HEPES buffer (HBSS (Gibco, 14025) supplemented with 20 mM HEPES + 1 mM MgCl2 + 1 mM CaCl2, pH = 7.4) to a final concentration of 0.5% DMSO in the Fluo-4 Ca^2+-assay. The DMSO level was kept constant for all concentrations of both compounds. DMSO was confirmed not to have any activity by itself at this concentration. L-Trp (T0254) and L -Phe (P2126) were obtained from Sigma-Aldrich and dissolved in buffer.
(§4) The Ca^2+ measurements were preformed using the Fluo-4 NW Calcium Assay Kit (Invitrogen, Molecular Probes, F36206) as previously described. Briefly, the Fluo-4 dye loading solution was prepared according to the manufacturer’s instructions by dissolving it in HEPES-buffer supplemented with 2.5 mM probenecid. 50 μL dye loading solution was added to each well. Cells were incubated with the Fluo-4 dye for 60 min at 37 °C, then washed with 100 μL HEPES-buffer. 100 μL HEPES-buffer supplemented with 2.5 mM probenecid was then added to each well and incubated in 10 minutes at 37 °C before measurement. […] Intracellular calcium changes were recorded as indicated on either a NOVOstar (BMG Labtech) at 37 °C with an excitation filter of 485 nm and an emission filters 520 nm or a FlexStation 3 Benchtop Multi-Mode Microplate Reader (Molecular Devices) at 37 °C with an excitation wavelength of 485 nm and emission of 525 nm.
(§5) All pharmacological data have been analyzed by using Prism 6.0 (GraphPad Software Inc., San Diego). Fitting of concentration response curves was performed by non-linear regression log(agonist) vs. response (four parameters). Pooled data are shown with standard error of the mean (S.E.M.) and data showing one representative are shown with standard deviation (S.D.). Changes in potency (pEC50) and span of myc-GPR139(WT) in comparison to untagged GPR139(WT) was statistically analyzed with a paired t-test and significance was accepted at p < 0.05. The ELISA data were normalized to surface expression of myc-GPR139(WT) (100%). […]

[2] = target: T2, GPR139 W241H^6×48 (Homo sapiens, UniProt Q6DWJ6, W241H); experiment: Fluo-4 Ca2+-assay, GPR139 mutant W241H; format: cell-based; set-up: key to Emax ± SEM: NE: no effect (loss of activity); details: for EC50: W241H mutant
T2 construct: mGluR5 signal peptide (N); expressed in transfected cells; host or cells: HEK293
T2 sequence (Q6DWJ6 2-353 W241H limits assumed): T1 sequence (Q6DWJ6 2-353 E108A limits assumed) with A107E, W240H
Excerpt: as §1, §2, §3, §4, §5

[3] = only one experiment, read-out: pEC50 (converted)
[4] = three independent experiments, read-out: pEC50 ± SEM (converted)

EC50 [1, 3]: 251 µM | Emax ([1]; E108A, normalized to buffer (0%) and 30 mM Phe (100%) on WT, n=1, read-out: Emax): 127% | EC50 [2]: > 31600 µM | Emax ± SEM ([2]; W241H, at 30 mM, normalized to buffer (0%) and 30 mM Phe (100%) on WT): NE^##
SMILES: N[C@@H](Cc1ccccc1)C(=O)O [L-Phe, phenylalanine]

SMILES: N[C@@H](Cc1c[nH]c2ccccc12)C(=O)O [L-Trp, tryptophan]
EC50 [1, 3]: 166 µM | Emax ([1]; E108A, normalized to buffer (0%) and 10 mM Trp (100%) on WT, n=1, read-out: Emax): 125% | EC50 [2]: > 10000 µM | Emax ± SEM ([2]; W241H, at 10 mM, normalized to buffer (0%) and 10 mM Trp (100%) on WT): NE^#

change of potency ([1]; E108A mutant versus WT): no effect | EC50 [1, 4]: 0.209 µM | Emax ([1]; E108A, normalized to buffer (0%) and 8 μM 1a (100%) on WT, read-out: Emax ± SEM): 151 ± 9% | EC50 [2]: > 7.94 µM | change of potency ([2]; W241H mutant versus WT): markedly reduced potency | Emax at 8 µM ([2]; W241H, at 8 μM, normalized to buffer (0%) and 8 μM 1a (100%) on WT): 27 ± 10%
SMILES: COc1cc(OC)cc(C(=O)NNC(=O)Nc2cccc3ccccc23)c1 [Compound 1a]

EC50 [1, 4]: 0.151 µM | Emax ([1]; read-out: Emax ± SEM): 112 ± 10% | Emax at 100 µM [2]: 12 ± 3% | EC50 [2]: > 100 µM
SMILES: C[C@@H](NC(=O)CNC(=O)c1cccc(Cl)c1)c1ccccc1 (racemic) [Compound 7c]
